# Assay results as given in ChEMBL document CHEMBL5321264, “Proteomic Changes in Methicillin-Resistant Staphylococcus aureus Exposed to Cannabinoids” (2023).
# Active and inactive are the calls of the source. No cut-off for these calls is given here.
# What was measured:
# Staphylococcus aureus [1] = assay: Bactericidal activity against methicillin-resistant Staphylococcus aureus CC398 assessed as reduction in bacterial viability measured after 15 hrs by real-time microscopic analysis; assay type: functional
# Staphylococcus aureus [2] = assay: Antibacterial activity against methicillin-resistant Staphylococcus aureus CC398 assessed as reduction in bacterial growth measured after 4 hrs by real-time microscopic analysis; assay type: functional
# [3] = Selectivity ratio of MBC for bactericidal activity against methicillin-resistant Staphylococcus aureus CC398 to MIC for antibacterial activity against methicillin-resistant Staphylococcus aureus CC398; assay type: functional
# Staphylococcus aureus [4] = assay: Potentiation of methicillin-induced antibacterial activity against methicillin-resistant Staphylococcus aureus CC398 assessed as ratio of methicillin MBC to MIC at 2.5 microg/ml; assay type: functional; conditions: dose 2.5 µg/ml
# Staphylococcus aureus [5] = assay: Potentiation of methicillin-induced antibacterial activity against methicillin-resistant Staphylococcus aureus CC398 assessed as methicillin MIC at 2.5 microg/ml; assay type: functional; conditions: dose 2.5 µg/ml
# Staphylococcus aureus [6] = assay: Potentiation of methicillin-induced antibacterial activity against methicillin-resistant Staphylococcus aureus CC398 assessed as methicillin MBC at 2.5 microg/ml; assay type: functional; conditions: dose 2.5 µg/ml
# Staphylococcus aureus [7] = assay: Potentiation of methicillin-induced antibacterial activity against methicillin-resistant Staphylococcus aureus CC398 assessed as reduction in methicillin MIC at 2.5 microg/ml relative to control; assay type: functional; set-up: scale not given: the % may be the effect or the level left; conditions: dose 2.5 µg/ml
# Staphylococcus aureus [8] = assay: Antibacterial activity against methicillin-resistant Staphylococcus aureus CC398 assessed as increase in cell density at 1.25 microg/ml by real-time microscopic analysis relative to control; assay type: functional; conditions: dose 1.25 µg/ml; time 15 hrs
# Staphylococcus aureus [9] = assay: Upregulation of ATP synthase subunit beta expression in methicillin-resistant Staphylococcus aureus CC398 in the presence of methicillin by gene ontology analysis; assay type: functional
# Staphylococcus aureus [10] = assay: Upregulation of GTP-binding protein typeA expression in methicillin-resistant Staphylococcus aureus CC398 in the presence of methicillin by gene ontology analysis; assay type: functional
# Staphylococcus aureus [11] = assay: Upregulation of proline-tRNA ligase expression in methicillin-resistant Staphylococcus aureus CC398 in the presence of methicillin by gene ontology analysis; assay type: functional
# Staphylococcus aureus [12] = assay: Upregulation of elongation factor P expression in methicillin-resistant Staphylococcus aureus CC398 in the presence of methicillin by gene ontology analysis; assay type: functional
# Staphylococcus aureus [13] = assay: Downregulation of isocitrate dehydrogenase expression in methicillin-resistant Staphylococcus aureus CC398 in the presence of methicillin by gene ontology analysis; assay type: functional
# Staphylococcus aureus [14] = assay: Downregulation of succinate-CoA synthase expression in methicillin-resistant Staphylococcus aureus CC398 in the presence of methicillin by gene ontology analysis; assay type: functional
# Staphylococcus aureus [15] = assay: Downregulation of phosphoglycerate kinase expression in methicillin-resistant Staphylococcus aureus CC398 in the presence of methicillin by gene ontology analysis; assay type: functional
# Staphylococcus aureus [16] = assay: Antibacterial activity against methicillin-resistant Staphylococcus aureus CC398 assessed as inhibition of bacterial growth at higher concentration incubated for 15 hrs by real-time microscopic analysis; assay type: functional, organism-based
# Staphylococcus aureus [17] = assay: Antibacterial activity against methicillin-resistant Staphylococcus aureus CC398 assessed as inhibition of bacterial growth at lower concentration incubated for 15 hrs by real-time microscopic analysis; assay type: functional, organism-based
# Staphylococcus aureus [18] = assay: Upregulation of peptide chain release factor 1 expression in methicillin-resistant Staphylococcus aureus CC398 in the presence of methicillin; assay type: functional
# Staphylococcus aureus [19] = assay: Upregulation of ATP synthase subunit B expression in methicillin-resistant Staphylococcus aureus CC398 in the presence of methicillin by gene ontology analysis; assay type: functional
# Staphylococcus aureus [20] = assay: Upregulation of ATP synthase subunit alpha expression in methicillin-resistant Staphylococcus aureus CC398 in the presence of methicillin by gene ontology analysis; assay type: functional
# Staphylococcus aureus [21] = assay: Downregulation of superoxide dismutase expression in methicillin-resistant Staphylococcus aureus CC398 in the presence of methicillin by gene ontology analysis; assay type: functional
# Staphylococcus aureus [22] = assay: Upregulation of enolase expression in methicillin-resistant Staphylococcus aureus CC398 by gene ontology analysis; assay type: functional
# Staphylococcus aureus [23] = assay: Downregulation of catalase expression in methicillin-resistant Staphylococcus aureus CC398 in the presence of methicillin by gene ontology analysis; assay type: functional
# Staphylococcus aureus [24] = assay: Antibacterial activity against methicillin-resistant Staphylococcus aureus CC398 assessed as increase in cell density at 2.5 microg/ml measured after 15 hrs by real-time microscopic analysis relative to control; assay type: functional; conditions: dose 2.5 µg/ml
# Staphylococcus aureus [25] = assay: Upregulation of PBP2 protein expression in methicilin-resistant Staphylococcus aureus CC398 in the presence of methicillin by gene ontology analysis; assay type: functional
# Staphylococcus aureus [26] = assay: Upregulation of GrpE protein expression in methicillin-resistant Staphylococcus aureus CC398 in the presence of methicillin by gene ontology analysis; assay type: functional
# Staphylococcus aureus [27] = assay: Downregulation of aminoacyl-tRNA-synthetase expression in methicillin-resistant Staphylococcus aureus CC398 in the presence of methicillin by gene ontology analysis; assay type: functional
# Staphylococcus aureus [28] = assay: Downregulation of Threonine synthase expression in methicillin-resistant Staphylococcus aureus CC398 in the presence of methicillin by gene ontology analysis; assay type: functional
# Staphylococcus aureus [29] = assay: Downregulation of cysteine synthase expression in methicillin-resistant Staphylococcus aureus CC398 in the presence of methicillin by gene ontology analysis; assay type: functional
# Staphylococcus aureus [30] = assay: Downregulation of serine hydroxy methyltransferase expression in methicillin-resistant Staphylococcus aureus CC398 in the presence of methicillin by gene ontology analysis; assay type: functional
# Staphylococcus aureus [31] = assay: Downregulation of Carbamoyl-phosphate synthase small chain expression in methicillin-resistant Staphylococcus aureus CC398 in the presence of methicillin by gene ontology analysis; assay type: functional
# Staphylococcus aureus [32] = assay: Upregulation of ATP-dependent protease ATPase subunit […] expression in methicillin-resistant Staphylococcus aureus CC398 in the presence of methicillin by gene ontology analysis; assay type: functional
# Staphylococcus aureus [33] = assay: Downregulation of pyruvate kinase expression in methicillin-resistant Staphylococcus aureus CC398 in the presence of methicillin by gene ontology analysis; assay type: functional
# Staphylococcus aureus [34] = assay: Antibacterial activity against methicillin-resistant Staphylococcus aureus CC398 assessed as increase in cell density at 5 microg/ml measured after 15 hrs by real-time microscopic analysis relative to control; assay type: functional; conditions: dose 5 µg/ml
# Staphylococcus aureus [35] = assay: Downregulation of fructose-1,6-bisphosphate aldolase expression in methicillin-resistant Staphylococcus aureus CC398 in the presence of methicillin by gene ontology analysis; assay type: functional
# Staphylococcus aureus [36] = assay: Downregulation of 2,3-bisphosphoglycerate-independent phosphoglycerate mutase expression in methicillin-resistant Staphylococcus aureus CC398 in the presence of methicillin by gene ontology analysis; assay type: functional
# Staphylococcus aureus [37] = assay: Downregulation of elongation factor Tu expression in methicillin-resistant Staphylococcus aureus CC398 in the presence of methicillin by gene ontology analysis; assay type: functional
# Staphylococcus aureus [38] = assay: Downregulation of elongation factor G expression in methicillin-resistant Staphylococcus aureus CC398 in the presence of methicillin by gene ontology analysis; assay type: functional
# Staphylococcus aureus [39] = assay: Downregulation of arginine-tRNA-synthetase expression in methicillin-resistant Staphylococcus aureus CC398 in the presence of methicillin by gene ontology analysis; assay type: functional
# Staphylococcus aureus [40] = assay: Potentiation of methicillin-induced antibacterial activity against methicillin-resistant Staphylococcus aureus CC398 assessed as ratio of methicillin MBC to MIC at 7.5 microg/ml; assay type: functional; conditions: dose 7.5 µg/ml
# Staphylococcus aureus [41] = assay: Potentiation of methicillin-induced antibacterial activity against methicillin-resistant Staphylococcus aureus CC398 assessed as methicillin MIC at 7.5 microg/ml; assay type: functional; conditions: dose 7.5 µg/ml
# Staphylococcus aureus [42] = assay: Potentiation of methicillin-induced antibacterial activity against methicillin-resistant Staphylococcus aureus CC398 assessed as methicillin MBC at 7.5 microg/ml; assay type: functional; conditions: dose 7.5 µg/ml
# Staphylococcus aureus [43] = assay: Upregulation of DNA-directed RNA polymerase subunit omega expression in Staphylococcus aureus CC398 in the presence of methicillin by gene ontology analysis; assay type: functional
# Staphylococcus aureus [44] = assay: Upregulation of SepF expression in Staphylococcus aureus CC398 in the presence of methicillin by gene ontology analysis; assay type: functional
# Staphylococcus aureus [45] = assay: Downregulation of isoleucine-tRNA-synthetase expression in methicillin-resistant Staphylococcus aureus CC398 in the presence of methicillin by gene ontology analysis; assay type: functional
# Staphylococcus aureus [46] = assay: Downregulation of valine-tRNA-synthetase expression in methicillin-resistant Staphylococcus aureus CC398 in the presence of methicillin by gene ontology analysis; assay type: functional
# Staphylococcus aureus [47] = assay: Antibacterial activity against methicillin-resistant Staphylococcus aureus CC398 assessed as increase in cell density at 1 microg/ml measured after 15 hrs by real-time microscopic analysis relative to control; assay type: functional; conditions: dose 1 µg/ml
# Staphylococcus aureus [48] = assay: Antibacterial activity against methicillin-resistant Staphylococcus aureus CC398 assessed as increase in cell growth rate by measuring maximal response at 1 microg/ml after 15 hrs by real-time microscopic analysis relative to control; assay type: functional; conditions: dose 1 µg/ml
# Staphylococcus aureus [49] = assay: Upregulation of ATP synthase subunit beta expression in Staphylococcus aureus CC398 by gene ontology analysis; assay type: functional
# Staphylococcus aureus [50] = assay: Upregulation of ATP synthase subunit b expression in Staphylococcus aureus CC398 by gene ontology analysis; assay type: functional
# Staphylococcus aureus [51] = assay: Upregulation of ATP synthase subunit alpha expression in Staphylococcus aureus CC398 by gene ontology analysis; assay type: functional
# Staphylococcus aureus [52] = assay: Upregulation of PBP2 protein expression in Staphylococcus aureus CC398 by gene ontology analysis; assay type: functional
smiles,measurement,setting,value
C=C(C)[C@@H]1CCC(C)=C[C@H]1c1c(O)cc(CCCCC)cc1O [CANNABIDIOL],MBC,Staphylococcus aureus [1],5 µg/mL
same,MIC,Staphylococcus aureus [2],2.5 µg/mL
same,Ratio,[3],2
same,Ratio,Staphylococcus aureus [4],16
same,MBC,Staphylococcus aureus [5],1 µg/mL
same,MIC,Staphylococcus aureus [6],0.063 µg/mL
same,Activity,Staphylococcus aureus [7],87.5%
same,Activity,Staphylococcus aureus [8],19%
same,Activity,Staphylococcus aureus [9],Active
same,Activity,Staphylococcus aureus [10],Active
same,Activity,Staphylococcus aureus [11],Active
same,Activity,Staphylococcus aureus [12],Active
same,Activity,Staphylococcus aureus [13],Active
same,Activity,Staphylococcus aureus [14],Active
same,Activity,Staphylococcus aureus [15],Active
same,Activity,Staphylococcus aureus [16],Active
same,Activity,Staphylococcus aureus [17],inactive
same,Activity,Staphylococcus aureus [18],Active
same,Activity,Staphylococcus aureus [19],Active
same,Activity,Staphylococcus aureus [20],Active
same,Activity,Staphylococcus aureus [21],Active
same,Activity,Staphylococcus aureus [22],Active
same,Activity,Staphylococcus aureus [23],Active
CCCCCc1cc(O)c2c(c1)OC(C)(C)c1ccc(C)cc1-2 [CANNABINOL],MBC,Staphylococcus aureus [1],7.5 µg/mL
same,MIC,Staphylococcus aureus [2],2.5 µg/mL
same,Ratio,[3],3
same,Ratio,Staphylococcus aureus [4],16
same,MBC,Staphylococcus aureus [5],1 µg/mL
same,MIC,Staphylococcus aureus [6],0.063 µg/mL
same,Activity,Staphylococcus aureus [7],87.5%
same,Activity,Staphylococcus aureus [24],29%
same,Activity,Staphylococcus aureus [25],Active
same,Activity,Staphylococcus aureus [9],Active
same,Activity,Staphylococcus aureus [15],Active
same,Activity,Staphylococcus aureus [26],Active
same,Activity,Staphylococcus aureus [27],Active
same,Activity,Staphylococcus aureus [28],Active
same,Activity,Staphylococcus aureus [29],Active
same,Activity,Staphylococcus aureus [30],Active
same,Activity,Staphylococcus aureus [31],Active
same,Activity,Staphylococcus aureus [16],Active
same,Activity,Staphylococcus aureus [17],inactive
same,Activity,Staphylococcus aureus [19],Active
same,Activity,Staphylococcus aureus [20],Active
same,Activity,Staphylococcus aureus [32],Active
same,Activity,Staphylococcus aureus [33],Active
same,Activity,Staphylococcus aureus [21],Active
same,Activity,Staphylococcus aureus [22],Active
same,Activity,Staphylococcus aureus [23],Active
CCCCCc1cc(O)c2c(c1)OC(C)(C)[C@@H]1CCC(C)=C[C@@H]21 [DRONABINOL],MBC,Staphylococcus aureus [1],20 µg/mL
same,MIC,Staphylococcus aureus [2],7.5 µg/mL
same,Ratio,[3],2.67
same,Activity,Staphylococcus aureus [7],93.8%
same,Activity,Staphylococcus aureus [34],45%
same,Activity,Staphylococcus aureus [9],Active
same,Activity,Staphylococcus aureus [35],Active
same,Activity,Staphylococcus aureus [15],Active
same,Activity,Staphylococcus aureus [36],Active
same,Activity,Staphylococcus aureus [37],Active
same,Activity,Staphylococcus aureus [38],Active
same,Activity,Staphylococcus aureus [39],Active
same,Activity,Staphylococcus aureus [26],Active
same,Activity,Staphylococcus aureus [16],Active
same,Activity,Staphylococcus aureus [17],inactive
same,Ratio,Staphylococcus aureus [40],8
same,MIC,Staphylococcus aureus [41],0.063 µg/mL
same,MBC,Staphylococcus aureus [42],0.5 µg/mL
same,Activity,Staphylococcus aureus [19],Active
same,Activity,Staphylococcus aureus [20],Active
same,Activity,Staphylococcus aureus [43],Active
same,Activity,Staphylococcus aureus [44],Active
same,Activity,Staphylococcus aureus [45],Active
same,Activity,Staphylococcus aureus [46],Active
same,Activity,Staphylococcus aureus [33],Active
same,Activity,Staphylococcus aureus [21],Active
same,Activity,Staphylococcus aureus [22],Active
COc1cccc(OC)c1C(=O)N[C@@H]1C(=O)N2[C@@H]1SC(C)(C)[C@@H]2C(=O)O [METHICILLIN],MBC,Staphylococcus aureus [1],8 µg/mL
same,MIC,Staphylococcus aureus [2],4 µg/mL
same,Activity,Staphylococcus aureus [47],43%
same,Activity,Staphylococcus aureus [48],143%
same,Activity,Staphylococcus aureus [49],Active
same,Activity,Staphylococcus aureus [50],Active
same,Activity,Staphylococcus aureus [51],Active
same,Activity,Staphylococcus aureus [52],Active
